Source: article doi:10.1101/706168v1 (biorxiv, 2019)

Target: TASK-1 (K2P3.1), wild type (Homo sapiens, UniProt O14649)
Experiment: two-electrode voltage clamp, Xenopus oocytes
Format: cell-based

Sequence of TASK-1 (K2P3.1), wild type (O14649 whole entry): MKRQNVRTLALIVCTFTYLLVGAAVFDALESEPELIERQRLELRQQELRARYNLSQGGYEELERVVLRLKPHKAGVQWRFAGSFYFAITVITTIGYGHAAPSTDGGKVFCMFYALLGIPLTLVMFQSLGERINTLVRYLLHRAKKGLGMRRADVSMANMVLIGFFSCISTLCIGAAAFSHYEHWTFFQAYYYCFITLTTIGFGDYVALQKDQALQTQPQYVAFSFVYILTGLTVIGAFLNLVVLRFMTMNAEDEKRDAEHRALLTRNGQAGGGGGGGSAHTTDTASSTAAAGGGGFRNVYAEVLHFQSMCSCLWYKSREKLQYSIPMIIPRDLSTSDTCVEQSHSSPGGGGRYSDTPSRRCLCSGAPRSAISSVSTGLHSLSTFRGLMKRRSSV

O=C(c1cccc(OC(F)(F)F)n1)N1CCN(Cc2c(-c3ccc(Cl)cc3)nc3ccccn23)CC1 [BAY 2341237, (4-{[2-(4-chlorophenyl)imidazo[1,2-a]pyridin-3-yl]methyl}piperazin-1-yl)[6-(trifluoromethoxy)pyridin-2-yl]methanone]
EC50: 7.6 nM
